# Results taken from patent EP1203770A1 (priority 1992, dated 1994).
# pKi: −log10 of the molar value. Read-outs that look alike come from different tables or passages of the source.
# Target: T1, HIV-1 protease (Human immunodeficiency virus type 1 group M subtype B, UniProt P04585)
# T1 construct: The protease (or proteinase), consisting of only 99 amino acids, is among the smallest enzymes known
# Assay: In vitro HIV protease inhibitory assay (HIV Protease FITC Assay)
# Type: biochemical
# Conditions: for inhibition at 0.123 µM / inhibition at 0.37 µM / inhibition at 1.1 µM / inhibition at 3.3 µM / inhibition at 10 µM / inhibition at 30 µM: read-out: HIV-1 Protease % Inhib
# Procedure, shortened: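 Percent inhibition was read as fluorescence after avidin-bead capture and filtration separated FITC cleavage product from biotinylated substrate. Enzyme and substrate reacted 1 h, RT, dark, at pH 5.5 (0.1 M sodium acetate, 1.0 M NaCl, 0.05% NP-40).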
Compound,inhibition at 0.123 µM (HIV-1 Dose 0.123 uM),inhibition at 0.37 µM (HIV-1 Dose 0.370 uM),inhibition at 1.1 µM (HIV-1 Dose 1.100 uM),inhibition at 3.3 µM (HIV-1 Dose 3.300 uM),inhibition at 10 µM (HIV-1 Dose 10.000 uM),inhibition at 30 µM (HIV-1 Dose 30.000 uM),pKi (read-out: HIV-1 FITC Ki),pKi,inhibition at 0.123 µM,inhibition at 0.37 µM,inhibition at 1.1 µM,inhibition at 3.3 µM,inhibition at 10 µM,inhibition at 30 µM
"O=C1OC(Cc2ccccc2)(c2ccccc2)CC(O)=C1C(/C=C/c1ccccc1)c1ccccc1 (stereo not shown) [Example 172, 3-(1,3-Diphenyl-2-propenyl)-5,6-dihydro-4-hydroxy-6-phenyl-6-(phenylmethyl)-2H-pyran-2-one]",< 10%,< 10%,11.7%,29.5%,56.8%,60.6%,–,–,–,–,–,–,–,–
"CCCC1(CCc2ccccc2)CC(O)=C(/C(=C/c2ccccc2)c2ccccc2)C(=O)O1 (stereo not shown) [Example 173, 3-(1,2-Diphenylethenyl)-5,6-dihydro-4-hydroxy-6-(2-phenylethyl)-6-propyl-, (E)-2H-pyran-2-one]",< 10%,< 10%,–,< 10%,39.2%,58.8%,–,–,–,–,–,–,–,–
"C=CC(C1=C(O)CC(CCC)(CCc2ccccc2)OC1=O)c1ccccc1 (stereo not shown) [Example 174, 5,6-Dihydro-4-hydroxy-6-(2-phenylethyl)-3-(1-phenyl-2-propenyl)-6-propyl-2H-pyran-2-one]",23.5%,52.8%,81.8%,102%,110%,106%,7.80,–,–,–,–,–,–,–
"CCCC1(CCc2ccccc2)CC(O)=C(C(CC)c2ccccc2)C(=O)O1 (stereo not shown) [Example 175, 5,6-Dihydro-4-hydroxy-6-(2-phenylethyl)-3-(1-phenylpropyl)-6-propyl-2H-pyran-2-one]",–,–,–,–,–,–,–,7.46,19.7%,46.7%,78.8%,99.3%,107%,105%
"CCCC1(Cc2ccccc2)CC(O)=C(C(C=Cc2ccccc2)c2ccccc2)C(=O)O1 (stereo not shown) [Example 176, 3-(1,3-Diphenyl-2-propenyl)-5,6-dihydro-4-hydroxy-6-(phenylmethyl)-6-propyl-2H-pyran-2-one]",< 10%,< 10%,28.9%,62.3%,88.7%,101%,–,–,–,–,–,–,–,–
"CCCC1(Cc2ccccc2)CC(O)=C(C(CCc2ccccc2)c2ccccc2)C(=O)O1 (stereo not shown) [Example 177, 3-(1,3-Diphenylpropyl)-5,6-dihydro-4-hydroxy-6-(phenylmethyl)-6-propyl-2H-pyran-2-one]",< 10%,19.7%,48.2%,74.2%,89.3%,95%,–,–,–,–,–,–,–,–
"CCC(Cc1ccccc1)c1cc(O)c(C(c2cccc(NS(=O)(=O)c3ccccc3)c2)C2CC2)c(=O)o1 (stereo not drawn) [Example 178, 3-(α-Cyclopropyl-meta-(phenylsulfonylamino)benzyl)-6-(α-ethylphenethyl)-4-hydroxy-2H-pyran-2-one]",21.6%,61.9%,83.1%,95.5%,104%,107%,7.76,–,–,–,–,–,–,–
"CCCS(=O)(=O)Nc1cccc(C(c2c(O)cc(C(CC)Cc3ccccc3)oc2=O)C2CC2)c1 (stereo not drawn) [Example 179, 3-(α-Cyclopropyl-meta-(propylsulfonylamino)benzyl)-6-(α-etylphenethyl)-4-hydroxy-2H-pyran-2-one]",23.7%,61.9%,77.9%,94.4%,95.1%,102%,7.40,–,–,–,–,–,–,–
"CCC(Cc1ccccc1)c1cc(O)c(C(c2cccc(NS(=O)(=O)/C=C/c3ccccc3)c2)C2CC2)c(=O)o1 (stereo not drawn) [Example 180, 3-(α-Cyclopropyl-meta-((E)-2-phenylethenylsulfonylamino)benzyl)-6-(α-ethylphenethyl)-4-hydroxy-2H-pyran-2-one]",32%,55.9%,80.5%,91.9%,99.5%,98%,7.63,–,–,–,–,–,–,–
